Laboratory results: patent US20050070510A1, “Substituted tetracycline compounds as synergistic antifungal agents” (Paratek Pharmaceuticals, Inc., priority 2001, published 2005)

These compounds were tested on Candida albicans (ATCC#90028) (assay: Synergetic antifungal activity with amphotericin B, broth microdilution (NCCLS)). Conditions: amphotericin B alone.
Assay type: cell-based

SMILES | amphotericin B MIC [µg/mL]
C[C@@H]1[C@H](O)[C@@H](C)/C=C/C=C/C=C/C=C/C=C/C=C/C=C/[C@H](O[C@@H]2O[C@H](C)[C@@H](O)[C@H](N)[C@@H]2O)C[C@@H]2O[C@](O)(C[C@@H](O)C[C@@H](O)[C@H](O)CC[C@@H](O)C[C@@H](O)CC(=O)O[C@H]1C)C[C@H](O)[C@H]2C(=O)O [Amphotericin B] | 0.5

These compounds were tested on COS-1 cells (assay: In vitro mammalian cytotoxicity assay (Resazurin)). Conditions: not given.

SMILES | In Vitro Cytotoxicity
COc1ccc(CNc2cc(N(C)C)c3c(c2O)C(=O)C2=C(O)[C@]4(C#N)C(=O)C(C(N)=O)=C(O)[C@@](N)(N(C)C)[C@]4(N)C[C@]2(N)C3)cc1O [TW] | * (toxicities greater than >25 μg/ml are represented by *)
CN(C)c1cc(NCC2=CC=C(C(C)(C)C)CC2)c(O)c2c1C[C@@]1(N)C[C@@]3(N)[C@H](N(C)C)C(O)=C(C(N)=O)C(=O)[C@@]3(C#N)C(O)=C1C2=O [TX] | ** (toxicities less than 25 μg/mL are represented by **)
CN(C)c1cc(NCc2ccc(O)c(O)c2)c(O)c2c1C[C@@]1(N)C[C@@]3(N)[C@H](N(C)C)C(O)=C(C(N)=O)C(=O)[C@@]3(C#N)C(O)=C1C2=O [TY] | * (toxicities greater than >25 μg/ml are represented by *)
C=CCC(O)c1ccc(OC)c(-c2ccc(O)c3c2C[C@@]2(N)C[C@@]4(N)[C@H](N(C)C)C(O)=C(C(N)=O)C(=O)[C@@]4(C#N)C(O)=C2C3=O)c1 (some centres unmarked) [UE] | ** (toxicities less than 25 μg/mL are represented by **)
COC(=O)/C=C/c1cccc(-c2ccc(O)c3c2C[C@@]2(N)C[C@@]4(N)[C@H](N(C)C)C(O)=C(C(N)=O)C(=O)[C@@]4(C#N)C(O)=C2C3=O)c1 [UF] | ** (toxicities less than 25 μg/mL are represented by **)
CN(C)c1cc(NCc2ccc([N+](=O)O)o2)c(O)c2c1C[C@@]1(N)C[C@@]3(N)[C@H](N(C)C)C(O)=C(C(N)=O)C(=O)[C@@]3(C#N)C(O)=C1C2=O [UH] | ** (toxicities less than 25 μg/mL are represented by **)
CN(C)[C@@H]1C(O)=C(C(N)=O)C(=O)[C@@]2(C#N)C(O)=C3C(=O)c4c(O)ccc(-c5cccnc5)c4C[C@@]3(N)C[C@@]12N [UL] | ** (toxicities less than 25 μg/mL are represented by **)
CCC(NCc1cc(N(C)C)c2c(c1O)C(=O)C1=C(O)[C@]3(C#N)C(=O)C(C(N)=O)=C(O)[C@@H](N(C)C)[C@]3(N)C[C@]1(N)C2)C(F)(F)F (some centres unmarked) [UM] | ** (toxicities less than 25 μg/mL are represented by **)
CN(C)[C@@H]1C(O)=C(C(N)=O)C(=O)[C@@]2(C#N)C(O)=C3C(=O)c4c(O)ccc(-c5ccncc5)c4C[C@@]3(N)C[C@@]12N [UN] | ** (toxicities less than 25 μg/mL are represented by **)
CN(C)[C@@H]1C(O)=C(C(N)=O)C(=O)[C@@]2(C#N)C(O)=C3C(=O)c4c(O)ccc(-c5ccc(CNc6cccnc6)cc5)c4C[C@@]3(N)C[C@@]12N [UO] | ** (toxicities less than 25 μg/mL are represented by **)
CC(=O)OCC(=O)Nc1ccc(-c2ccc(O)c3c2C[C@@]2(N)C[C@@]4(N)[C@H](N(C)C)C(O)=C(C(N)=O)C(=O)[C@@]4(C#N)C(O)=C2C3=O)cc1 [UR] | ** (toxicities less than 25 μg/mL are represented by **)
CN(C)[C@@H]1C(O)=C(C(N)=O)C(=O)[C@@]2(C#N)C(O)=C3C(=O)c4c(O)ccc(-c5ccc(NC(=O)NCCCCl)cc5)c4C[C@@]3(N)C[C@@]12N [US] | ** (toxicities less than 25 μg/mL are represented by **)
COC(=O)CCC(=O)Nc1ccc(-c2ccc(O)c3c2C[C@@]2(N)C[C@@]4(N)[C@H](N(C)C)C(O)=C(C(N)=O)C(=O)[C@@]4(C#N)C(O)=C2C3=O)cc1 [UT] | ** (toxicities less than 25 μg/mL are represented by **)
CN(C)[C@@H]1C(O)=C(C(N)=O)C(=O)[C@@]2(C#N)C(O)=C3C(=O)c4c(O)ccc(-c5ccc(NC(=O)CBr)cc5)c4C[C@@]3(N)C[C@@]12N [UV] | ** (toxicities less than 25 μg/mL are represented by **)
Cc1cccnc1-c1ccc(O)c2c1C[C@@]1(N)C[C@@]3(N)[C@H](N(C)C)C(O)=C(C(N)=O)C(=O)[C@@]3(C#N)C(O)=C1C2=O [UW] | * (toxicities greater than >25 μg/ml are represented by *)
CN(C)[C@@H]1C(O)=C(C(N)=O)C(=O)[C@@]2(C#N)C(O)=C3C(=O)c4c(O)ccc(-c5cnccn5)c4C[C@@]3(N)C[C@@]12N [UX] | * (toxicities greater than >25 μg/ml are represented by *)
CCc1cncc(-c2ccc(O)c3c2C[C@@]2(N)C[C@@]4(N)[C@H](N(C)C)C(O)=C(C(N)=O)C(=O)[C@@]4(C#N)C(O)=C2C3=O)c1 [UY] | ** (toxicities less than 25 μg/mL are represented by **)
CN(C)[C@@H]1C(O)=C(C(N)=O)C(=O)[C@@]2(C#N)C(O)=C3C(=O)c4c(O)ccc(-c5ccc(NC(=O)CNC(C)(C)C)cc5)c4C[C@@]3(N)C[C@@]12N [UZ] | ** (toxicities less than 25 μg/mL are represented by **)
CN(C)[C@@H]1C(O)=C(C(N)=O)C(=O)[C@@]2(C#N)C(O)=C3C(=O)c4c(O)ccc(-c5ccc(NC(=O)CN)cc5)c4C[C@@]3(N)C[C@@]12N [VA] | ** (toxicities less than 25 μg/mL are represented by **)
CCc1ccnc(-c2ccc(O)c3c2C[C@@]2(N)C[C@@]4(N)[C@H](N(C)C)C(O)=C(C(N)=O)C(=O)[C@@]4(C#N)C(O)=C2C3=O)c1 [VB] | ** (toxicities less than 25 μg/mL are represented by **)
Cc1ccc(-c2ccc(O)c3c2C[C@@]2(N)C[C@@]4(N)[C@H](N(C)C)C(O)=C(C(N)=O)C(=O)[C@@]4(C#N)C(O)=C2C3=O)nc1 [VC] | ** (toxicities less than 25 μg/mL are represented by **)
CN(C)c1cc(CNc2ccccc2)c(O)c2c1C[C@@]1(N)C[C@@]3(N)[C@H](N(C)C)C(O)=C(C(N)=O)C(=O)[C@@]3(C#N)C(O)=C1C2=O [VD] | ** (toxicities less than 25 μg/mL are represented by **)
Cc1ccnc(-c2ccc(O)c3c2C[C@@]2(N)C[C@@]4(N)[C@H](N(C)C)C(O)=C(C(N)=O)C(=O)[C@@]4(C#N)C(O)=C2C3=O)c1 [VE] | ** (toxicities less than 25 μg/mL are represented by **)
CN(C)[C@@H]1C(O)=C(C(N)=O)C(=O)[C@@]2(C#N)C(O)=C3C(=O)c4c(O)ccc(-c5cncc(Br)c5)c4C[C@@]3(N)C[C@@]12N [VF] | ** (toxicities less than 25 μg/mL are represented by **)
COC(=O)C1C(=O)[C@@]2(O)C(O)=C3C(=O)c4c(O)c(N(C)Cc5cc[nH]n5)cc(N(C)C)c4C[C@@]3(N)C[C@@]2(N)[C@H](N(C)C)C1OC (some centres unmarked) [VG] | ** (toxicities less than 25 μg/mL are represented by **)
CN(C)c1cc(NCc2ccc([N+](=O)O)cc2)c(O)c2c1C[C@@]1(N)C[C@@]3(N)[C@H](N(C)C)C(O)=C(C(N)=O)C(=O)[C@@]3(C#N)C(O)=C1C2=O [VH] | ** (toxicities less than 25 μg/mL are represented by **)
Cc1cccc(-c2ccc(O)c3c2C[C@@]2(N)C[C@@]4(N)[C@H](N(C)C)C(O)=C(C(N)=O)C(=O)[C@@]4(C#N)C(O)=C2C3=O)n1 [VJ] | ** (toxicities less than 25 μg/mL are represented by **)
CC(CF)Nc1ccc(-c2ccc(O)c3c2C[C@@]2(N)C[C@@]4(N)[C@H](N(C)C)C(O)=C(C(N)=O)C(=O)[C@@]4(C#N)C(O)=C2C3=O)cc1 (some centres unmarked) [VK] | ** (toxicities less than 25 μg/mL are represented by **)
